Measured values reported in patent US20040101916A1, “Treatment of liver diseases” (priority 2002, published 2004).

Key:
GADD45β [1] = test: Northern blot of GADD45β expression after SAMe treatment in Hep3B (p53 null); type: cell-based, human
From the text: (§1) Expression of GADD45β after SAMe treatment under different p53 backgrounds was examined by Northern blot.

GADD45β [2] = test: Northern blot of GADD45β expression after SAMe treatment in CL-48 normal liver cells; type: cell-based; conditions: CL-48 cells, 0, 1.0 mM, 2.0 mM SAMe, 72 hours
Experimental: (§2) CL-48 and HepG2 cells were treated with 0, 1.0 mM, and 2.0 mM SAMe. After 72 hours of treatment, Northern blot was performed to analyze the expression of GADD45β, using 18S RNA as an internal loading control.

[3] = system: CCAAT/NF-Y boxes of the GADD45β promoter region; test: Gel retardation / super-shift assay, nuclear proteins of CL-48 cells on CCAAT/NF-Y boxes of the GADD45β promoter; type: cell-based; conditions: CL-48 nuclear proteins
Experimental: End-labeled oligonucleotides corresponding to the CCAAT/NF-Y boxes of the GADD45β promoter region were incubated with the extracted nuclear proteins, and the binding complexes were then separated on a 6% retardation gel. Protein binding sites on the GADD45β promoter Pα region were identified using unlabeled oligonucleotide competitors and NF-Y antibodies.

[4] = system: NF-κB box of the GADD45β promoter region; test: Gel retardation assay, nuclear proteins of CL-48 cells on NF-κB box of the GADD45β promoter; type: cell-based; conditions: CL-48 nuclear proteins, 48 hours after 2.0 mM SAMe or 200 mM alcohol, compared to non-treated control cells
Experimental: Nuclear proteins were extracted as mentioned above. End-labeled oligonucleotides corresponding to the NF-κB box of the GADD45β promoter region were incubated with the extracted nuclear proteins, and the binding complexes were then separated on a 6% retardation gel.

GADD45β [5] = test: Northern blot of GADD45β expression after SAMe treatment in HepG2 cells; type: cell-based, human
Experimental: as §2, §1

GADD45α = conditions: HepG2 clone, Northern blot
Experimental: (§3) Expression of GADD45α and GADD45β after alcohol treatment was determined by Northern blot in HepG2 clone.

GADD45β [6] = conditions: HepG2 clone, Northern blot
Experimental: as §3

C[S+](CC[C@H](N)C(=O)O)C[C@H]1O[C@@H](n2cnc3c(N)ncnc32)[C@H](O)[C@@H]1O (stereo partly shown) [SAMe, S-Adenosylmethionine]
expression of GADD45β after SAMe treatment (GADD45β [1]): failed to be induced
induction of GADD45β expression (GADD45β [2]): induced by a low dose of SAMe in CL-48 cells, and the induction reaches plateau at a higher dose of SAMe
amount of major protein-binding band on CCAAT/NF-Y oligonucleotides ([3]; 48 hours after 2.0 mM SAMe, compared to non-treated controls): amount of a major band decreased
super-shift of binding complex with NF-Y antibodies ([3]; SAMe-treated samples): the binding complex is shifted
amount of binding complexes on NF-κB box oligonucleotides [4]: decreased amount of one binding complex and an increased amount of another binding complex
expression of GADD45β after SAMe treatment (GADD45β [5]; HepG2 (p53 wild type), different dose ranges): up-regulated
induction of GADD45β expression (GADD45β [5]; HepG2 cells, 0, 1.0 mM, 2.0 mM SAMe, 72 hours): the induction remains dose-dependent

CCO [alcohol]
expression of GADD45α after alcohol treatment (GADD45α): increases in a dose-dependent manner
expression of GADD45β after alcohol treatment (GADD45β [6]): does not change
amount of binding complexes on NF-κB box oligonucleotides [4]: decreased amount of one binding complex and an increased amount of another binding complex
